Measured values: patent US20080207532A1, “Use of Nordihydroguaiaretic Acid Derivatives in the Treatment of Drug Resistant Cancer, Viral and Microbial Infection” (Johns Hopkins University, priority 2004, published 2008)
pIC50: −log10 of the molar value.

Tests used:
[1] = system: NCI/ADR-RES multidrug resistant breast cancer xenografts; assay: combination therapy against NCI/ADR-RES xenografts in nude mice; conditions: two weeks
Protocol: Nude mice bearing NCI/ADR-RES multidrug resistant breast cancer xenografts were used as a model for combination therapy to further examine synergy between M4N and paclitaxel.
T-cell deficient female nude (nu/nu) mice, 5-6 weeks of age, were purchased from Charles River Laboratories (Wilmington, Mass.) and were housed in a pathogen-free room. All experiments involving the mice were carried out in accordance with the Johns Hopkins University Animal Care and Use Committee guideline. The mice were implanted subcutaneously in both flanks with 1×10^6 NCI/ADR-RES cells suspended in Hank's balanced salt solution (HBSS). […] For intraperitoneal (i.p.) administration, M4N, maltose-M3N and paclitaxel were dissolved in a recently developed reduced cremophor solution containing 20% (v) dehydrated ethanol, 20% (v) Cremophor EL, PEG 300, <11% (v) Tween 80 (22). Daily injections of 0.05 ml were performed for each drug and drug combination.
Tumors were measured in two perpendicular dimensions once every seven days, and the tumor volumes were calculated according to the following formula: […]
where a is the width of the tumor (smaller diameter) and b is the length (larger diameter) (23). The mean tumor volume and standard error were calculated for each treatment group. Relative mean tumor volumes, (V/V0), where V is the mean tumor volume at a particular time and V0 is the mean tumor volume at day 0 (23), were determined and used to assess tumor growth inhibition (T/C value) using the following equation:
T/C(%)=Relative Mean Tumor Volume of treated/Relative Mean Volume of control×100.
The NCI standard for the minimal level for antitumor activity (T/C≦42%) was adopted (25). At the termination of the experiment the tumors were excised and fixed in formaldehyde. Tissue samples were then sent to Paragon Bioservices for histology and immunohistochemistry using antibodies against human P-glycoprotein (Pgp).
Two dosage regimens of M4N and paclitaxel, both with a constant molar ratio of 20:1 (M4N:paclitaxel), were employed as determined by in vitro testing to be synergistic as shown in Table 1. The 8 and 16 μmol m^2 doses of pactitaxel were submaximal based on values from other studies (22) and the M4N doses of 160 and 320 μmol/m^2 were arrived at by decreasing the maximum tolerated dose used in our previous study with MCF-7 breast cancer xenografts (5). An additional NDGA derivative was also tested. Maltose-M3N was developed as a water soluble alternative to M4N, however for consistency it was dissolved in the same reduced cremophor solvent system as M4N and paclitaxel for this study.

solubility in water = assay type: physicochemical
MCF-7 = conditions: MCF-7; read-out: IC50 from previous studies; cited from earlier work
[2] = dogs and rabbits, subcutaneous, intravaginal and IV formulations; cited from earlier work
[3] = clinical trials to date; cited from earlier work
[4] = higher regimen: M4N or Mal-M3N 320, Px 16 μmoles/m^2, i.p. daily
[5] = lower regimen: M4N 160, Px 8 μmoles/m^2, i.p. daily

Compound: COc1ccc(C[C@@H](C)[C@@H](C)Cc2ccc(OC)c(OC)c2)cc1OC [M4N, tetra-o-methyl nordihydroguaiaretic acid]
- Deaths [1, 4]: 0/7
- Relative Mean Tumor Volume [1, 4]: 1.33
- T/C % [1, 4]: 50.8%
- Deaths [1, 5]: 0/7
- Mean Body Weight Change [1, 5]: +0.2 g/mouse
- Relative Mean Tumor Volume [1, 5]: 1.70
- T/C % [1, 5]: 64.9%
- solubility in aqueous solution (solubility in water): limited solubility
- pIC50 (MCF-7): ~5.15
- amount of drug in the blood [2]: barely detectable
- systemic side effects (gastrointestinal problems, anemia, hair loss) [3]: has not caused the systemic side effects
